Data reported in patent US9212168B2 (priority 2011, dated 2015).
pEC50: −log10 of the molar value.

Assays:
[1] = target: HCV genotype 1b replicon; assay: HCV genotype 1b replicon assay (Renilla luciferase readout); format: cell-based, hepatitis C virus; settings: for Genotype 1b: HCV genotype 1b replicon; for pEC50: Hepatitis C virus, read-out: Genotype 1b
Description: Assay 1: HCV Genotype 1b Replicon Assay
The HCV genotype 1b replicon cell line was obtained from Apath LLC (Brooklyn, N.Y.) (APC144; Huh7 cell background). This subgenomic replicon contains the N-terminus of the HCV core protein fused to the neomycin-resistance selectable marker. The EMCV IRES lies downstream and drives expression of humanized Renilla luciferase fused to the non-structural proteins NS3-NS5B. This cell line was used to determine compound potency using the luciferase activity readout as a measurement of compound inhibition of replicon levels.
Cells were grown at 37° C. in a 5% CO2 humidified incubator in DMEM (Invitrogen) with 10% FBS (HyClone), 1×NEAA (Invitrogen), 1× Pen-Strep (Invitrogen), and 500 μg/mL G418 (Invitrogen). On day 1 of the assay, cells were plated at 10,000 cells/well in white 96-well tissue culture plates (Costar) in 200 μL media lacking G418. Four hours later, once the cells have adhered, the media was removed and replaced with media (no G418) containing dose-responses of test compounds. Compounds were initially diluted in DMSO and then diluted another 200× in media to bring the final DMSO concentration down to 0.5%. The cells were incubated with test compounds for 48 hours. At the end of the incubation period, media and compound were removed from the plates and the luciferase activity was determined using Promega Renilla-Glo reagents.
To analyze the data, the luciferase activity was plotted vs. the compound concentration, and EC50 values were determined from a 4-parameter robust fit model with the GraphPad Prism software package (GraphPad Software, Inc., San Diego, Calif.). Results are expressed as the negative decadic logarithm of the EC50 value, pEC50.
Test compounds having a higher pEC50 value in this assay show greater inhibition of HCV genotype 1b replication.

[2] = test system: HCV genotype 1a replicon; assay: HCV genotype 1a replicon assay (NS3 protease activity readout); format: cell-based, hepatitis C virus; settings: for Genotype 1a: HCV genotype 1a replicon; for pEC50: Hepatitis C virus, read-out: Genotype 1a, HCV genotype 1a replicon
How it was run: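 Genotype 1a subgenomic replicon cells (APC89, Huh7.5) were treated with compound dose-responses in G418-free medium, 0.5% DMSO final, for 48 or 72 hours at 37° C. Lysate NS3/4a protease activity measured with 15 μM FRET substrate, 20 min at 37° C (ex 340/em 509 nm); EC50 by 4-parameter fit.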

Structure (SMILES) | Genotype 1b [1] | Genotype 1a [2] | pEC50 [1] | pEC50 [2]
CNC(=O)N1CCN(c2ccc(C(=O)Nc3ccc(-c4ccc(-c5c[nH]c([C@@H]6C[C@H](N(C)C)CN6C(=O)[C@@H](NC(=O)OC)C(C)C)n5)cc4)c(C)c3)cn2)[C@H](C)C1 [Example 2-5] | D (D represents pEC50>10 (EC50<0.1 nM)) | C (C represents pEC50 between and 9 and about 10, (EC50 between 1 nM and 0.1 nM)) | – | –
CNC(=O)N1CCN(c2ccc(NC(=O)c3ccc(-c4ccc(-c5c[nH]c([C@@H]6C[C@@H]7CCCC[C@@H]7N6C(=O)[C@@H](NC(=O)OC)C(C)C)n5)cc4)c(OC(F)(F)F)c3)cn2)[C@H](C)C1 [Example 6-11] | – | – | > 10.00 | 9.00 to 10.00
COC(=O)N[C@H](C(=O)N1C[C@@H](OC)C[C@H]1c1nc(-c2ccc(-c3ccc(C(=O)Nc4ccc(N5CCN(C(=O)C(C)(C)C)C[C@H]5C)nc4)cc3OC(F)(F)F)cc2)c[nH]1)C1CCOCC1 [Example 22-12] | D (D represents pEC50>10 (EC50<0.1 nM)) | D (D represents pEC50>10 (EC50<0.1 nM)) | – | –
COC(=O)N[C@H](C(=O)N1C[C@@H](C)C[C@H]1c1nc(-c2ccc(-c3cc(F)c(NC(=O)c4ccc(N5CCN(C(=O)C(C)(C)C)C[C@H]5C)nc4)cc3Cl)cc2)c[nH]1)C(C)C [Example 5-6] | – | – | > 10.00 | 9.00 to 10.00
COC(=O)N[C@H](C(=O)N1C[C@@H](C)C[C@H]1c1nc(-c2ccc(-c3cc(F)c(NC(=O)c4ccc(N5CCN(C(=O)C(C)(C)C)C[C@H]5C)nc4)cc3OC(F)(F)F)cc2)c[nH]1)C1CCOCC1 [Example 13-22] | – | – | > 10.00 | > 10.00
COC(=O)N[C@H](C(=O)N1C[C@@H](C)C[C@H]1c1nc(-c2ccc(-c3cc(F)c(NC(=O)c4ccc(N5C[C@H](C)N(C(=O)c6c[nH]cn6)C[C@H]5C)nc4)cc3OC(F)(F)F)cc2)c[nH]1)C(C)C [Example 1-14] | D (D represents pEC50>10 (EC50<0.1 nM)) | D (D represents pEC50>10 (EC50<0.1 nM)) | – | –
CCC(=O)N1CCC[C@@H]1C(=O)N1C[C@@H](C)N(c2ccc(NC(=O)c3ccc(-c4ccc(-c5c[nH]c([C@@H]6C[C@H](C)CN6C(=O)[C@@H](NC(=O)OC)C(C)C)n5)cc4)c(OC(F)(F)F)c3)cn2)C[C@@H]1C [Example 4-21] | D (D represents pEC50>10 (EC50<0.1 nM)) | D (D represents pEC50>10 (EC50<0.1 nM)) | – | –
COC(=O)NC(C(=O)N1C[C@@H](C)C[C@H]1c1nc(-c2ccc(-c3cc(Cl)c(NC(=O)c4ccc(N5CCN(C(=O)C(C)(C)C)C[C@H]5C)nc4)cc3OC(F)(F)F)cc2)c[nH]1)C1CCC(=O)CC1 (stereo partly shown) [Example 13-35] | – | – | > 10.00 | > 10.00
COC(=O)N[C@H](C(=O)N1C[C@@H](OC)C[C@H]1c1nc(-c2ccc(-c3cc(F)c(NC(=O)c4ccc(N5CCN(C(=O)C(C)(C)CO)C[C@H]5C)nc4)cc3OC(F)(F)F)cc2)c[nH]1)C(C)C [Example 27-6] | D (D represents pEC50>10 (EC50<0.1 nM)) | D (D represents pEC50>10 (EC50<0.1 nM)) | – | –
COC(=O)N[C@H](C(=O)N1C[C@@H](OC)C[C@H]1c1nc(-c2ccc(-c3cc(Cl)c(NC(=O)c4ccc(N5C[C@H](C)N(C(=O)[C@H]6CC6(C)C)C[C@H]5C)nc4)cc3OC(F)(F)F)cc2)c[nH]1)C1CCOCC1 [Example 28-6] | D (D represents pEC50>10 (EC50<0.1 nM)) | D (D represents pEC50>10 (EC50<0.1 nM)) | – | –
CNC(=O)N1C[C@@H](C)N(c2ccc(NC(=O)c3ccc(-c4ccc(-c5c[nH]c([C@@H]6C[C@H](C)CN6C(=O)[C@@H](NC(=O)OC)C(C)C)n5)cc4)c(OC(F)(F)F)c3)cn2)C[C@@H]1C [Example 4-14] | D (D represents pEC50>10 (EC50<0.1 nM)) | C (C represents pEC50 between and 9 and about 10, (EC50 between 1 nM and 0.1 nM)) | – | –
COCC(=O)N1CCC[C@@]1(C)C(=O)N1C[C@@H](C)N(c2ccc(C(=O)Nc3cc(OC(F)(F)F)c(-c4ccc(-c5c[nH]c([C@@H]6C[C@H](OC)CN6C(=O)[C@@H](NC(=O)OC)C6CCOCC6)n5)cc4)cc3Cl)cn2)C[C@@H]1C [Example 28-17] | D (D represents pEC50>10 (EC50<0.1 nM)) | D (D represents pEC50>10 (EC50<0.1 nM)) | – | –
CNC(=O)N1CCN(c2ccc(C(=O)Nc3cc(OC(F)(F)F)c(-c4ccc(-c5c[nH]c([C@@H]6C[C@H](C)CN6C(=O)[C@@H](NC(=O)OC)C(C)C)n5)cc4)cc3F)cn2)[C@H](C)C1 [Example 1-1] | D (D represents pEC50>10 (EC50<0.1 nM)) | D (D represents pEC50>10 (EC50<0.1 nM)) | – | –
COC(=O)N[C@H](C(=O)N1[C@@H](C)CC[C@H]1c1nc(-c2ccc(-c3cc(Cl)c(NC(=O)c4ccc(N5CCN(C(=O)C(C)(C)C)C[C@H]5C)nc4)cc3C(F)(F)F)cc2)c[nH]1)C(C)C [Example 17-2] | D (D represents pEC50>10 (EC50<0.1 nM)) | D (D represents pEC50>10 (EC50<0.1 nM)) | – | –
COC(=O)N[C@H](C(=O)N1C[C@@H](N(C)C)C[C@H]1c1nc(-c2ccc(-c3ccc(NC(=O)c4ccc(N5CCN(C(=O)C6CC6)C[C@H]5C)nc4)cc3)cc2)c[nH]1)C(C)C [Example 6, ((S)-1-{(2S,4S)-2-[4-(4′-{[6-((R)-4-Cyclopropanecarbonyl-2-methyl-piperazin-1-yl)-pyridine-3-carbonyl]-amino}-biphenyl-4-yl)-1H-imidazol-2-yl]-4-dimethylamino-pyrrolidine-1-carbonyl}-2-methyl-propyl)-carbamic acid methyl ester] | – | – | > 10.00 | 9.00 to 10.00
COC(=O)N[C@H](C(=O)N1C[C@@H](C#N)C[C@H]1c1nc(-c2ccc(-c3cc(Cl)c(NC(=O)c4ccc(N5CCN(C(=O)C(C)(C)C)C[C@H]5C)nc4)cc3OC(F)(F)F)cc2)c[nH]1)C(C)C [Example 15-11] | – | – | > 10.00 | > 10.00
COC(=O)N[C@H](C(=O)N1C[C@@H](N(C)C)C[C@H]1c1nc(-c2ccc(-c3ccc(NC(=O)c4ccc(N5CCN(C(=O)c6c[nH]cn6)C[C@H]5C)nc4)cc3)cc2)c[nH]1)C(C)C [Example 2-1] | D (D represents pEC50>10 (EC50<0.1 nM)) | C (C represents pEC50 between and 9 and about 10, (EC50 between 1 nM and 0.1 nM)) | – | –
COC(=O)N[C@H](C(=O)N1C[C@@H](OC)C[C@H]1c1nc(-c2ccc(-c3cc(Cl)c(NC(=O)c4ccc(N5CCN(C(=O)C(C)(C)C)C[C@H]5C)nc4)cc3OC(F)(F)F)cc2)c[nH]1)C(C)(C)O [Example 16-1] | D (D represents pEC50>10 (EC50<0.1 nM)) | D (D represents pEC50>10 (EC50<0.1 nM)) | – | –
COC(=O)N[C@H](C(=O)N1C[C@@H](C)C[C@H]1c1nc(-c2ccc(-c3cc(Cl)c(NC(=O)c4ccc(N5CCN(C(=O)C(C)(C)C)C[C@H]5C)nc4)cc3OC(F)(F)F)cc2)c(CO)[nH]1)C1CCOCC1 [Example 20-2] | D (D represents pEC50>10 (EC50<0.1 nM)) | D (D represents pEC50>10 (EC50<0.1 nM)) | – | –
COC(=O)N[C@H](C(=O)N1C[C@@H](OC)C[C@H]1c1nc(-c2ccc(-c3cc(Cl)c(NC(=O)c4ccc(N5CCN(C(=O)C(C)(C)C)C[C@H]5C)nc4)cc3OC(F)(F)F)cc2)c(CO)[nH]1)C1CCOCC1 [Example 28-15] | D (D represents pEC50>10 (EC50<0.1 nM)) | D (D represents pEC50>10 (EC50<0.1 nM)) | – | –
COC(=O)N[C@H](C(=O)N1C[C@@H](C)C[C@H]1c1nc(-c2ccc(-c3cc(F)c(NC(=O)c4ccc(N5CCN(C(=O)[C@H]6CC6(C)C)C[C@H]5C)nc4)cc3F)cc2)c[nH]1)C(C)C [Example 1-81] | D (D represents pEC50>10 (EC50<0.1 nM)) | D (D represents pEC50>10 (EC50<0.1 nM)) | – | –
COC(=O)N[C@H](C(=O)N1C[C@@H](C)C[C@H]1c1nc(-c2ccc(-c3ccc(C(=O)Nc4ccc(N5CCN(C(=O)C(C)(C)C)C[C@H]5C)nc4)cc3OC(F)(F)F)cc2)c[nH]1)C1CCOCC1 [Example 22-3] | D (D represents pEC50>10 (EC50<0.1 nM)) | D (D represents pEC50>10 (EC50<0.1 nM)) | – | –
COC(=O)N[C@H](C(=O)N1C[C@@H](C)C[C@H]1c1nc(-c2ccc(-c3cc(F)c(NC(=O)c4ccc(N5CCN(C(=O)C(C)(C)C)C[C@H]5C)nc4)cc3OC(F)(F)F)cc2)c[nH]1)C(C)(C)O [Example 13-24] | – | – | > 10.00 | > 10.00
